Data published in PMC10897196, “Structure–activity characteristics of phenylalanine analogs selectively transported by L-type amino acid transporter 1 (LAT1)” (Scientific Reports, 2024).
Where two headings read alike, the source gives them in different places.

Key:
human LAT2 = target: T1, human LAT2 (Homo sapiens, UniProt Q9UHI5); assay: Inhibition of L-[14C]alanine uptake in HEK293-hLAT2 cells; format: cell-based
T1 construct: expressed in transfected cells
T1 sequence (Q9UHI5 1-535): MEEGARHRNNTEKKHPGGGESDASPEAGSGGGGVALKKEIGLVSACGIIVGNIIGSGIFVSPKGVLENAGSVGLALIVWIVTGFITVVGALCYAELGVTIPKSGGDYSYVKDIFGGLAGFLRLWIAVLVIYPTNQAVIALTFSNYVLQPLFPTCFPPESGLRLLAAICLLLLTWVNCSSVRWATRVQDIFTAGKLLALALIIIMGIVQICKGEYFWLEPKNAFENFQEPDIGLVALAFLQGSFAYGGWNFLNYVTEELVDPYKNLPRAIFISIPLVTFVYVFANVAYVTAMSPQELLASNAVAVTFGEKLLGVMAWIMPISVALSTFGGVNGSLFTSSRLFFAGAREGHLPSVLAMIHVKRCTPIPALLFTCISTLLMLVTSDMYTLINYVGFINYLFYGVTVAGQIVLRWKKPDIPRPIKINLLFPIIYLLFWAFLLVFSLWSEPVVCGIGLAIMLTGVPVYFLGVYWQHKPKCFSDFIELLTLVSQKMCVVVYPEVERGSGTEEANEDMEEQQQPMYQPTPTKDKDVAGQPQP
T1 sequence (P08195 1-529 partner): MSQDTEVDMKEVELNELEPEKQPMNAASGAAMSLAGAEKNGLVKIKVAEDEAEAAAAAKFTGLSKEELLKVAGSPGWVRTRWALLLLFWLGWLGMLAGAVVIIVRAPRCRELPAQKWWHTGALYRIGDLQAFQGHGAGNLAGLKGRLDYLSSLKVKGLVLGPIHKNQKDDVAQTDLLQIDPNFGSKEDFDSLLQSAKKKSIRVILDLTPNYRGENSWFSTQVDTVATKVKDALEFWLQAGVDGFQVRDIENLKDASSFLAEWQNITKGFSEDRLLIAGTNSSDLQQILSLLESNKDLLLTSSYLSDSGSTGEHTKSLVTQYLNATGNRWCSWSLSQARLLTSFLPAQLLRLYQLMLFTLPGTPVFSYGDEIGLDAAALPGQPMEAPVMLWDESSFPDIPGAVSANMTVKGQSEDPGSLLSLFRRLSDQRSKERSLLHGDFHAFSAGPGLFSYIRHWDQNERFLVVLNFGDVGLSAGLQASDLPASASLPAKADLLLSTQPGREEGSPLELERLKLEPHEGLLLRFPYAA
Text: (§1) In this study, we used the HEK293 cells stably expressing human LAT1 or human LAT2, which form a heterodimeric complex with endogenous 4F2hc (CD98hc), required for plasma membrane localization. We first explored the impact of halogen group positioning in the benzene ring of Phe (Fig. 1) on its interaction with LAT1 and LAT2. […] We conducted inhibition experiments to measure the uptake of L-[^14C]leucine by LAT1 and L-[^14C]alanine by LAT2 in the presence or absence of Phe derivatives with an iodo group at position 2, 3, or 4 in the benzene ring.
(§2) The inhibition experiments were performed as described previously. HEK293-hLAT1 (1.5 × 10^5 cells/well) or HEK293-hLAT2 (2 × 10^5 cells/well) cells were plated onto poly-D-lysine-coated 24-well plates (Corning, New York, USA). Following a 2-day culture period, the uptake of 1 μM L-[^14C]leucine or L-[^14C]alanine was measured for 1 min in the absence or presence of non-radiolabeled test compounds at concentrations of 10, 30, and 100 μM. Radioactivity was quantified using a β-scintillation counter (LSC-3100; Aloka, Tokyo, Japan), and protein concentrations were determined with a Micro BCA Protein Assay Kit (Thermo Fisher Scientific, Rockford, IL). To calculate Ki values, the concentration-dependent uptake of L-[^14C]leucine or L-[^14C]alanine was analyzed in the presence and absence of test compounds[49]. The data were plotted against substrate concentration and fitted to Michaelis–Menten kinetics. Ki values were derived using nonlinear regression analysis with the enzyme kinetics inhibition module in GraphPad Prism software (Version 10.0.2; GraphPad Software Inc., San Diego, CA, USA).

LAT1 = test system: LAT1; parameters: method as in PMID 1559223; conditions: in situ brain perfusion; cited from earlier work
[1] = Tissue accumulation (plasma, tumor, small intestine) in B16-F10 tumor-bearing mice, HPLC; format: in vivo
Method: Female C57BL/6J mice were subcutaneously injected with 2 × 10^6 B16-F10 cells. The cells were prepared in a mixture containing a 1:1 volume ratio of phosphate-buffered saline (PBS) and Matrigel (Corning, New York, USA), with the total injection volume being 200 μL, administered into the dorsal flank. Tumor growth was measured bi-daily using calipers until tumors reached a size of approximately 300 ~ 500 mm^3, at which point they were deemed palpable. […] Blood samples were collected at 30 and 60 min post-administration. Then both the tumors and small intestines were excised and weighed for subsequent analysis by HPLC.
(§3) HPLC analyses were conducted as previously described. In brief, tumors and small intestines were homogenized in ice-cold PBS (3 times the tissue weight, v/w). The homogenates were then centrifuged at 15,000 ×g for 40 min at 4 °C. A 10 μL aliquot of the tissue supernatant or plasma was mixed with 190 μL of acetonitrile (MeCN) to precipitate proteins. This mixture was subsequently centrifuged at 15,000 ×g for 30 min at 4 °C. The resulting supernatant (100 μL) was dried, and the residue was reconstituted in 20 μL of 400 mM sodium borate (pH 8.0). Finally, 5 μL of 40 mM 4-fluoro-7-nitro-2,1,3-benzoxadiazole (NBD-F) in MeCN was added for fluorescence derivatization. HPLC analysis was carried out using a NANOSPACE SI-2 HPLC system (Shiseido, Tokyo, Japan) equipped with a fluorescence detector. […] The mobile phase consisted of MeCN, water, and trifluoroacetic acid (TFA) in a 27.5:72.5:0.05 (v/v/v) ratio, delivered at a flow rate of 200 μL/min.

[2] = Plasma concentration-time profile in normal mice after intravenous administration; format: in vivo; conditions: C57BL/6J mice, i.v., 15, 30, 60, 120 min; 2-F-Tyr 15.6 mg/kg, bicyclic-Phe 15 mg/kg
Method: The blood samples were collected at 15, 30, 60, and 120 min post-administration into lithium heparin-coated tubes (BD, New Jersey, USA) and then centrifuged at 1,500 ×g for 10 min at 23 °C. The resulting plasma was stored at −80 °C pending analysis by HPLC.
as §3

human LAT1 = target: T2, human LAT1 (Homo sapiens, UniProt Q01650); assay: Inhibition of L-[14C]leucine uptake in HEK293-hLAT1 cells; format: cell-based; conditions: for Ki: L-[14C]leucine uptake
T2 construct: expressed in transfected cells
Text: as §1, §2

T2 sequence (Q01650 whole entry, one chain of several): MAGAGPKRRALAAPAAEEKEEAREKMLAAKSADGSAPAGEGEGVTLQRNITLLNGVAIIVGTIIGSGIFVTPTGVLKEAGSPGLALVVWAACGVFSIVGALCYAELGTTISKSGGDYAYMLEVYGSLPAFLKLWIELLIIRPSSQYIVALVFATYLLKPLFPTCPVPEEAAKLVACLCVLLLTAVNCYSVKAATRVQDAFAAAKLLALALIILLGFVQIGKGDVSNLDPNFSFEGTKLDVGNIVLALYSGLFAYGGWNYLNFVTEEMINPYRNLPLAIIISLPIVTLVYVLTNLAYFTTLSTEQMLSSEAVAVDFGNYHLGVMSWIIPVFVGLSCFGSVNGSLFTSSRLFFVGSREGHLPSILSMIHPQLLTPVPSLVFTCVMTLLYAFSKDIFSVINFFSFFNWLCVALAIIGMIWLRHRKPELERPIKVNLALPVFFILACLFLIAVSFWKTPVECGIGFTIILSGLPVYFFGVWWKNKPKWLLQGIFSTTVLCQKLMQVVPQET

## N[C@]1(C(=O)O)CCc2ccccc2C1 [bicyclic-Phe, (R)-2-amino-1,2,3,4-tetrahydro-2-naphthoic acid]
Human LAT2; 1 μM L-[14C]alanine, 1 min, compounds at 10, 30, 100 μM
  Inhibition of LAT2-mediated L-[14C]alanine uptake (in words, rank order): minimal inhibition
Human LAT2; L-[14C]alanine uptake, HEK293-hLAT2, mean ± S.E.M., n = 3–4, read-out: Ki (μM) LAT2
  Ki: 3750 ± 740 µM
Human LAT2; as quoted in the discussion, read-out: Ki value for LAT2
  Ki: ~3800 µM
LAT1
  Vmax of BBB transport relative to melphalan: approximately seven times higher
[1]; 30 and 60 min after i.v., equimolar doses
  Small intestine-to-plasma ratio (I/P) (in words): significantly lower than that for 2-F-Tyr
[1]; i.v., normalized to tissue weight / plasma volume
  Concentration in small intestine compared with plasma: lower than in plasma
[1]; i.v., normalized to tissue weight / plasma volume, 2-F-Tyr at 60 min
  Concentration in tumor compared with plasma: higher than in plasma
[2]
  Plasma concentration (in words): consistently showing higher levels than 2-F-Tyr
Human LAT1; 1 μM L-[14C]leucine, 1 min, compounds at 10, 30, 100 μM
  Inhibition of LAT1-mediated L-[14C]leucine uptake (in words, rank order): inhibit
Human LAT1; Ki for LAT1 calculated at 100 μM of compound, HEK293-hLAT1, inhibitor at 100 μM
  Ki: 78.2 ± 13.9 µM
Human LAT1; Ki for LAT1 calculated at 300 μM of compound, HEK293-hLAT1, inhibitor at 300 μM
  Ki: 66.7 ± 7.08 µM
Human LAT1; L-[14C]leucine 50, 100, 200, 400 μM
  Mode of inhibition of LAT1 (Lineweaver–Burk plot): competitive manner
Human LAT1; HEK293-hLAT1, mean ± S.E.M., n = 3–4, read-out: Ki (μM) LAT1
  Ki: 78.2 ± 13.9 µM
Human LAT1; LAT1 selectivity, LAT2 Ki over LAT1 Ki
  Ki ratio (LAT2/LAT1): 47.98
